Earlier results, collected in patent US20230172203A1, “PLANT METABOLISM PROMOTING COMPOSITIONS AND METHODS OF USE” (Panoptic Ag Solutions LLC, priority 2021, published 2023).

Test system: tea plants
Details: exogenous application; background statement; cited from earlier work

## CNC(=O)CC[C@H](N)C(=O)O [γ-glutamylmethylamide]
  quality and yield of tea plants (in words): can improve the quality and yield of tea plants by increasing the number of usable leaves
